Structures can show the parent of a compound that is named as a salt.
Assays:
SK-PN-DW = experiment: cells; format: functional, cell-based, Homo sapiens; conditions: Homo sapiens, SK-PN-DW;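 also: growth inhibition measured with a viability assay on these cells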
Description: SANGER: Inhibition of human SK-PN-DW cell growth in a cell viability assay.

DU-4475 = experiment: cells; format: functional, cell-based, Homo sapiens; conditions: Homo sapiens, DU-4475
Description: SANGER: Inhibition of human DU-4475 cell growth in a cell viability assay.

Daoy = experiment: cells; format: functional, cell-based, Homo sapiens; conditions: Homo sapiens, Daoy;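 also: daoy cell growth inhibition, read out as cell viability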
Description: SANGER: Inhibition of human Daoy cell growth in a cell viability assay.

OE33 = experiment: cells; format: functional, cell-based, Homo sapiens; conditions: Homo sapiens, OE33;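 also: growth inhibition of human OE33 cells, measured by a cell viability assay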
Description: SANGER: Inhibition of human OE33 cell growth in a cell viability assay.

NCI-H1563 = experiment: cells; format: functional, cell-based, Homo sapiens; conditions: Homo sapiens, NCI-H1563;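 also: growth inhibition of human NCI-H1563 cells, read out with a cell viability assay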
Description: SANGER: Inhibition of human NCI-H1563 cell growth in a cell viability assay.

no-10 = experiment: cells; format: functional, cell-based, Homo sapiens; conditions: Homo sapiens;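 also: growth inhibition of no-10 cells, read out with a cell viability assay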
Description: SANGER: Inhibition of human no-10 cell growth in a cell viability assay.

SU-DHL-1 = experiment: SANGER: Inhibition of human SU-DHL-1 cell growth in a cell viability assay.; format: functional, cell-based; conditions: Homo sapiens, SU-DHL-1
LS-411N = experiment: cells; format: functional, cell-based, Homo sapiens; conditions: Homo sapiens, LS-411N
SNU-16 = experiment: cells; format: functional, cell-based, Homo sapiens; conditions: Homo sapiens, SNU-16;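 also: growth inhibition of human SNU-16 cells, determined with a cell viability readout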
Description: SANGER: Inhibition of human NCI-SNU-16 cell growth in a cell viability assay.

KGN = experiment: cells; format: functional, cell-based, Homo sapiens; conditions: Homo sapiens, KGN;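 also: growth inhibition of KGN cells, read out with a cell viability assay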
Description: SANGER: Inhibition of human KGN cell growth in a cell viability assay.

EFM-19 = experiment: cells; format: functional, cell-based, Homo sapiens; conditions: Homo sapiens, EFM-19;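 also: growth inhibition of human EFM-19 cells, measured in a cell viability assay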
Description: SANGER: Inhibition of human EFM-19 cell growth in a cell viability assay.

S-117 = experiment: cells; format: functional, cell-based, Homo sapiens; conditions: Homo sapiens, S-117
Description: SANGER: Inhibition of human S-117 cell growth in a cell viability assay.

GCIY = experiment: cells; format: functional, cell-based, Homo sapiens; conditions: Homo sapiens, GCIY;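 also: growth inhibition of the human GCIY cell line, read out by a cell viability assay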
Description: SANGER: Inhibition of human GCIY cell growth in a cell viability assay.

EW-16 = experiment: cells; format: functional, cell-based, Homo sapiens; conditions: Homo sapiens, EW-16;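 also: growth inhibition of human EW-16 cells, read out as cell viability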
Description: SANGER: Inhibition of human EW-16 cell growth in a cell viability assay.

KYSE-140 = experiment: cells; format: functional, cell-based, Homo sapiens; conditions: Homo sapiens, KYSE-140;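 also: cell viability assay measuring growth inhibition in human KYSE-140 cells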
Description: SANGER: Inhibition of human KYSE-140 cell growth in a cell viability assay.

769-P = experiment: cells; format: functional, cell-based, Homo sapiens; conditions: Homo sapiens, 769-P
Description: SANGER: Inhibition of human 769-P cell growth in a cell viability assay.

JAR = experiment: cells; format: functional, cell-based, Homo sapiens; conditions: Homo sapiens, JAR;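 also: growth inhibition of human JAR cells determined with a cell viability assay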
Description: SANGER: Inhibition of human JAR cell growth in a cell viability assay.

DMS-153 = experiment: cells; format: functional, cell-based, Homo sapiens; conditions: Homo sapiens, DMS-153
Description: SANGER: Inhibition of human DMS-153 cell growth in a cell viability assay.

C2BBe1 = experiment: cells; format: functional, cell-based, Homo sapiens; conditions: Homo sapiens, C2BBe1;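 also: growth inhibition of C2BBe1 cells, read out through a viability assay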
Description: SANGER: Inhibition of human C2BBe1 cell growth in a cell viability assay.

NCI-H2171 = experiment: cells; format: functional, cell-based, Homo sapiens; conditions: Homo sapiens, NCI-H2171;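 also: growth inhibition of human NCI-H2171 cells, read out by a cell viability assay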
Description: SANGER: Inhibition of human NCI-H2171 cell growth in a cell viability assay.

TYK-nu = experiment: cells; format: functional, cell-based, Homo sapiens; conditions: Homo sapiens, TYK-nu;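 also: growth inhibition of human TYK-nu cells, read out by a cell viability assay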
Description: SANGER: Inhibition of human TYK-nu cell growth in a cell viability assay.

ES6 = experiment: cells; format: functional, cell-based, Homo sapiens; conditions: Homo sapiens, ES6;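 also: growth inhibition of human ES6 cells, read out with a cell viability assay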
Description: SANGER: Inhibition of human ES6 cell growth in a cell viability assay.

NCI-H510A = experiment: cells; format: functional, cell-based, Homo sapiens; conditions: Homo sapiens, NCI-H510A;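 also: growth inhibition of NCI-H510A cells, read out with a cell viability assay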
Description: SANGER: Inhibition of human NCI-H510A cell growth in a cell viability assay.

C32 = experiment: cells; format: functional, cell-based, Homo sapiens; conditions: Homo sapiens, C32;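 also: cell viability assay, with IC50 reflecting inhibition of C32 cell growth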
Description: SANGER: Inhibition of human C32 cell growth in a cell viability assay.

C-33-A = experiment: cells; format: functional, cell-based, Homo sapiens; conditions: Homo sapiens, C-33-A;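 also: cell viability assay measuring growth inhibition of C-33-A cells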
Description: SANGER: Inhibition of human C-33-A cell growth in a cell viability assay.

RCC10RGB = experiment: cells; format: functional, cell-based, Homo sapiens; conditions: Homo sapiens, RCC10RGB;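 also: growth inhibition of human RCC10RGB cells, read out by a cell viability assay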
Description: SANGER: Inhibition of human RCC10RGB cell growth in a cell viability assay.

D-542MG = experiment: cells; format: functional, cell-based, Homo sapiens; conditions: Homo sapiens, D-542MG
Description: SANGER: Inhibition of human D-542MG cell growth in a cell viability assay.

SCC-9 = experiment: cells; format: functional, cell-based, Homo sapiens; conditions: Homo sapiens, SCC-9;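 also: Read-out is a cell viability assay, with values giving inhibition of cell growth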
Description: SANGER: Inhibition of human SCC-9 cell growth in a cell viability assay.

Calu-3 = experiment: cells; format: functional, cell-based, Homo sapiens; conditions: Homo sapiens, Calu-3;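 also: growth inhibition of human Calu-3 cells, determined with a cell viability assay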
Description: SANGER: Inhibition of human Calu-3 cell growth in a cell viability assay.

SW1573 = experiment: cells; format: functional, cell-based, Homo sapiens; conditions: Homo sapiens, SW1573;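 also: growth inhibition of SW1573 cells, read out with a cell viability assay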
Description: SANGER: Inhibition of human SW1573 cell growth in a cell viability assay.

P31-FUJ = experiment: cells; format: functional, cell-based, Homo sapiens; conditions: Homo sapiens, P31-FUJ;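 also: growth inhibition of P31-FUJ cells, read out with a viability assay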
Description: SANGER: Inhibition of human P31-FUJ cell growth in a cell viability assay.

TE-8 = experiment: cells; format: functional, cell-based, Homo sapiens; conditions: Homo sapiens, TE-8;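 also: growth inhibition of TE-8 cells, measured with a cell viability readout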
Description: SANGER: Inhibition of human TE-8 cell growth in a cell viability assay.

Ca-Ski = experiment: cells; format: functional, cell-based, Homo sapiens; conditions: Homo sapiens, Ca-Ski;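 also: cell viability assay measuring inhibition of Ca-Ski cell growth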
Description: SANGER: Inhibition of human Ca-Ski cell growth in a cell viability assay.

NCI-H1522 = experiment: cells; format: functional, cell-based, Homo sapiens; conditions: Homo sapiens, NCI-H1522;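 also: growth inhibition of NCI-H1522 cells, read out with a cell viability assay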
Description: SANGER: Inhibition of human NCI-H1522 cell growth in a cell viability assay.

AN3-CA = experiment: cells; format: functional, cell-based, Homo sapiens; conditions: Homo sapiens, AN3-CA;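 also: growth inhibition of human AN3-CA cells measured by a cell viability assay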
Description: SANGER: Inhibition of human AN3-CA cell growth in a cell viability assay.

MC-CAR = experiment: cells; format: functional, cell-based, Homo sapiens; conditions: Homo sapiens, MC-CAR;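 also: growth inhibition of the human MC-CAR cell line, read out by a cell viability assay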
Description: SANGER: Inhibition of human MC-CAR cell growth in a cell viability assay.

Hs-578T = experiment: cells; format: functional, cell-based, Homo sapiens; conditions: Homo sapiens, Hs-578T
Description: SANGER: Inhibition of human Hs-578-T cell growth in a cell viability assay.

MDA-MB-231 = experiment: cells; format: functional, cell-based, Homo sapiens; conditions: Homo sapiens, MDA-MB-231
Description: SANGER: Inhibition of human MDA-MB-231 cell growth in a cell viability assay.

HD-MY-Z = experiment: cells; format: functional, cell-based, Homo sapiens; conditions: Homo sapiens, HD-MY-Z;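 also: growth inhibition of HD-MY-Z cells, read out with a cell viability assay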
Description: SANGER: Inhibition of human HD-MY-Z cell growth in a cell viability assay.

UO-31 = experiment: cells; format: functional, cell-based, Homo sapiens; conditions: Homo sapiens, UO-31
Description: SANGER: Inhibition of human U031 cell growth in a cell viability assay.

COLO-684 = experiment: cells; format: functional, cell-based, Homo sapiens; conditions: Homo sapiens, COLO-684
Description: SANGER: Inhibition of human COLO-684 cell growth in a cell viability assay.

HAL-01 = experiment: cells; format: functional, cell-based, Homo sapiens; conditions: Homo sapiens, HAL-01;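 also: growth inhibition of human HAL-01 cells, read out with a cell viability assay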
Description: SANGER: Inhibition of human HAL-01 cell growth in a cell viability assay.

BEN = experiment: cells; format: functional, cell-based, Homo sapiens; conditions: Homo sapiens, BEN;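 also: growth inhibition of the BEN cell line, read out with a cell viability assay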
Description: SANGER: Inhibition of human BEN cell growth in a cell viability assay.

BL-41 = experiment: cells; format: functional, cell-based, Homo sapiens; conditions: Homo sapiens, BL-41;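 also: growth inhibition of human BL-41 cells, read out with a cell viability assay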
Description: SANGER: Inhibition of human BL-41 cell growth in a cell viability assay.

NCI-H2122 = experiment: cells; format: functional, cell-based, Homo sapiens; conditions: Homo sapiens, NCI-H2122;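 also: growth inhibition of the cells, read out with a cell viability assay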
Description: SANGER: Inhibition of human NCI-H2122 cell growth in a cell viability assay.

NCI-H446 = experiment: cells; format: functional, cell-based, Homo sapiens; conditions: Homo sapiens, NCI-H446;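 also: growth inhibition of NCI-H446 cells determined by a cell viability assay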
Description: SANGER: Inhibition of human NCI-H446 cell growth in a cell viability assay.

FTC-133 = experiment: cells; format: functional, cell-based, Homo sapiens; conditions: Homo sapiens, FTC-133
PANC-08-13 = experiment: cells; format: functional, cell-based, Homo sapiens; conditions: Homo sapiens, PANC-08-13
Description: SANGER: Inhibition of human PANC-08-13 cell growth in a cell viability assay.

Nc1ccn([C@@H]2O[C@H](CO)[C@@H](O)C2(F)F)c(=O)n1 [GEMCITABINE]
IC50 (SK-PN-DW): < 4 nM
IC50 (DU-4475): 3.14 nM
IC50 (Daoy): < 4 nM
IC50 (OE33): 61.2 nM
IC50 (NCI-H1563): > 1020 nM
IC50 (no-10): 174 nM
IC50 (SU-DHL-1): 62.7 nM
IC50 (LS-411N): 29.9 nM
IC50 (SNU-16): > 1020 nM
IC50 (KGN): < 4 nM
IC50 (EFM-19): > 1020 nM
IC50 (S-117): > 1020 nM
IC50 (GCIY): 92.7 nM
IC50 (EW-16): < 4 nM
IC50 (KYSE-140): 27.9 nM
IC50 (769-P): < 4 nM
IC50 (JAR): > 1020 nM
IC50 (DMS-153): > 1020 nM
IC50 (C2BBe1): > 1020 nM
IC50 (NCI-H2171): > 1020 nM
IC50 (TYK-nu): 72.6 nM
IC50 (ES6): < 4 nM
IC50 (NCI-H510A): 33.3 nM
IC50 (C32): > 1020 nM
IC50 (C-33-A): < 4 nM
IC50 (RCC10RGB): 634 nM
IC50 (D-542MG): > 1020 nM
IC50 (SCC-9): > 1020 nM
IC50 (Calu-3): 17.3 nM
IC50 (SW1573): 457 nM
IC50 (P31-FUJ): > 1020 nM
IC50 (TE-8): 8 nM
IC50 (Ca-Ski): 7.09 nM
IC50 (NCI-H1522): > 1020 nM
IC50 (AN3-CA): 203 nM
IC50 (MC-CAR): 11.6 nM
IC50 (Hs-578T): > 1020 nM
IC50 (MDA-MB-231): 27.8 nM
IC50 (HD-MY-Z): 6.68 nM
IC50 (UO-31): < 4 nM
IC50 (COLO-684): 26.4 nM
IC50 (HAL-01): 8.2 nM
IC50 (BEN): 238 nM
IC50 (BL-41): 14.4 nM
IC50 (NCI-H2122): < 4 nM
IC50 (NCI-H446): 269 nM
IC50 (FTC-133): 87.5 nM
IC50 (PANC-08-13): > 1020 nM

O=C(O)c1ccc(-c2c[nH]c3ncc(-c4ccccc4)cc23)cc1C1CCCC1 [GSK-650394]
IC50 (SK-PN-DW): 14200 nM
IC50 (DU-4475): > 16000 nM
IC50 (Daoy): 515 nM
IC50 (OE33): 4970 nM
IC50 (NCI-H1563): > 16000 nM
IC50 (no-10): > 16000 nM
IC50 (SU-DHL-1): > 16000 nM
IC50 (LS-411N): 10400 nM
IC50 (SNU-16): > 16000 nM
IC50 (KGN): > 16000 nM
IC50 (EFM-19): > 16000 nM
IC50 (S-117): > 16000 nM
IC50 (GCIY): > 16000 nM
IC50 (EW-16): 5750 nM
IC50 (KYSE-140): 8090 nM
IC50 (769-P): 4890 nM
IC50 (JAR): > 16000 nM
IC50 (DMS-153): > 16000 nM
IC50 (C2BBe1): > 16000 nM
IC50 (NCI-H2171): > 16000 nM
IC50 (TYK-nu): > 16000 nM
IC50 (ES6): 8670 nM
IC50 (NCI-H510A): > 16000 nM
IC50 (C32): > 16000 nM
IC50 (C-33-A): 8530 nM
IC50 (RCC10RGB): > 16000 nM
IC50 (D-542MG): > 16000 nM
IC50 (SCC-9): > 16000 nM
IC50 (Calu-3): 10700 nM
IC50 (SW1573): > 16000 nM
IC50 (P31-FUJ): > 16000 nM
IC50 (TE-8): 4120 nM
IC50 (Ca-Ski): > 16000 nM
IC50 (NCI-H1522): > 16000 nM
IC50 (AN3-CA): 7660 nM
IC50 (MC-CAR): > 16000 nM
IC50 (Hs-578T): > 16000 nM
IC50 (MDA-MB-231): > 16000 nM
IC50 (HD-MY-Z): > 16000 nM
IC50 (UO-31): > 16000 nM
IC50 (COLO-684): > 16000 nM
IC50 (HAL-01): > 16000 nM
IC50 (BEN): > 16000 nM
IC50 (BL-41): > 16000 nM
IC50 (NCI-H2122): 3330 nM
IC50 (NCI-H446): > 16000 nM
IC50 (FTC-133): > 16000 nM
IC50 (PANC-08-13): > 16000 nM

COC1=CC(c2cc3ccccc3[nH]2)=N/C1=C\c1[nH]c(C)cc1C [OBATOCLAX MESYLATE]
IC50 (SK-PN-DW): 57.3 nM
IC50 (DU-4475): 162 nM
IC50 (Daoy): 56.2 nM
IC50 (OE33): 251 nM
IC50 (NCI-H1563): > 16000 nM
IC50 (no-10): 1460 nM
IC50 (SU-DHL-1): 1250 nM
IC50 (LS-411N): 143 nM
IC50 (SNU-16): 13100 nM
IC50 (KGN): 261 nM
IC50 (EFM-19): 124 nM
IC50 (S-117): 29.1 nM
IC50 (GCIY): 310 nM
IC50 (EW-16): 39.1 nM
IC50 (KYSE-140): < 62.5 nM
IC50 (769-P): < 62.5 nM
IC50 (JAR): > 16000 nM
IC50 (DMS-153): 2170 nM
IC50 (C2BBe1): 2420 nM
IC50 (NCI-H2171): 850 nM
IC50 (TYK-nu): 179 nM
IC50 (ES6): 144 nM
IC50 (NCI-H510A): 772 nM
IC50 (C32): 452 nM
IC50 (C-33-A): < 62.5 nM
IC50 (RCC10RGB): 1140 nM
IC50 (D-542MG): 170 nM
IC50 (SCC-9): 1240 nM
IC50 (Calu-3): 253 nM
IC50 (SW1573): 2020 nM
IC50 (P31-FUJ): > 16000 nM
IC50 (TE-8): 98.9 nM
IC50 (Ca-Ski): 405 nM
IC50 (NCI-H1522): 2020 nM
IC50 (AN3-CA): 156 nM
IC50 (MC-CAR): 23.6 nM
IC50 (Hs-578T): 183 nM
IC50 (MDA-MB-231): 801 nM
IC50 (HD-MY-Z): 14600 nM
IC50 (UO-31): 814 nM
IC50 (COLO-684): 656 nM
IC50 (HAL-01): < 62.5 nM
IC50 (BEN): 1070 nM
IC50 (BL-41): 62.2 nM
IC50 (NCI-H2122): 93.8 nM
IC50 (NCI-H446): 950 nM
IC50 (FTC-133): 3650 nM
IC50 (PANC-08-13): 1340 nM

From ChEMBL document CHEMBL1201861, “Genomics of Drug Sensitity in Cancer screening data, Wellcome Trust Sanger Institute”
